Earlier results, collected in patent US6803060B2, “Composition to boost libido” (priority 2000, dated 2004).

Columns and labels:
[1] = tested on: male erectile dysfunction; conditions: alone or in combination with papaverine
corpus cavernosum = conditions: for erection after injection into the corpus cavernosum: injected directly into the corpus cavernosum with a hypodermic needle; for duration of erection after injection: intracavernosal injection, appropriate dose
impotentia erectionis = conditions: buccal, 100 I.U. three times a day for 14 days
impotent men = conditions: ingestion

Question: For CCCCC[C@H](O)/C=C/[C@H]1[C@H](O)CC(=O)[C@@H]1CCCCCCC(=O)O [prostaglandin E1], which erectile response [1] is on record?
Answer: improved erectile response

Question: For Cc1ccc(N(CC2=NCCN2)c2cccc(O)c2)cc1 [phentolamine], which “erection after injection into the corpus cavernosum” value (corpus cavernosum) is on record?
Answer: caused erection

Question: With CN(C)CCCN1c2ccccc2CCc2ccccc21 [imipramine] as the molecule, how does the “erection after injection into the corpus cavernosum” value (corpus cavernosum) read?
Answer: caused erection

Question: With CCN(CC)CCOC(=O)C(Cc1cccc2ccccc12)CC1CCCO1 (mixture of isomers) [naftidrofuryl] as the molecule, how does the “erection after injection into the corpus cavernosum” value (corpus cavernosum) read?
Answer: caused erection

Question: For COc1ccc(Cc2nccc3cc(OC)c(OC)cc23)cc1OC [papaverine], which “erection after injection into the corpus cavernosum” value (corpus cavernosum) is on record?
Answer: caused erection

Question: And the “duration of erection after injection” value (corpus cavernosum)?
Answer: unrelenting erection lasting for hours

Question: What does the source list for CC(COc1ccccc1)N(CCCl)Cc1ccccc1 (stereo not shown) [phenoxybenzamine]?
Answer: erection after injection into the corpus cavernosum (corpus cavernosum): caused erection; duration of erection after injection (corpus cavernosum): unrelenting erection lasting for hours

Question: With CC(=O)Oc1cc(C(C)C)c(OCCN(C)C)cc1C [thymoxamine] as the molecule, how does the “erection after injection into the corpus cavernosum” value (corpus cavernosum) read?
Answer: caused erection

Question: With CC[C@H](C)[C@@H]1NC(=O)[C@H](Cc2ccc(O)cc2)NC(=O)[C@@H](N)CSSC[C@@H](C(=O)N2CCC[C@H]2C(=O)N[C@@H](CC(C)C)C(=O)NCC(N)=O)NC(=O)[C@H](CC(N)=O)NC(=O)[C@H](CCC(N)=O)NC1=O [oxytocin] as the molecule, how does the “patients with improvement of impotentia erectionis” value (impotentia erectionis) read?
Answer: 12 of the 16

Question: Which results are given for COC(=O)[C@@H]1[C@H]2C[C@H]3c4[nH]c5ccccc5c4CCN3C[C@@H]2CC[C@@H]1O [yohimbine]?
Answer: treated patients reporting complete satisfaction (impotent men): 5%; subjective improvement in erectile ability (impotent men; impotent men treated): 38%

Question: For COc1ccc(CCN(C)CCCC(C#N)(c2ccc(OC)c(OC)c2)C(C)C)cc1OC (stereo not shown) [verapamil], which “erection after injection into the corpus cavernosum” value (corpus cavernosum) is on record?
Answer: caused erection
